Test results from US7598241B2, “Carboxamide derivatives and their use as factor Xa inhibitors” (Merck Patent GmbH, priority 2003, dated 2009).

How the values were obtained:
factor Xa = factor Xa (Homo sapiens, UniProt P00742); experiment: Factor Xa inhibition (FXa-IC50); type: biochemical
From the text: The inhibition of factor Xa by the compounds according to the invention and the measurement of the anticoagulant and antithrombotic activity can be determined by conventional in-vitro or in-vivo methods. A suitable method is described, for example, by J. Hauptmann et al. in Thrombosis and Haemostasis 1990, 63, 220-223.
The inhibition of factor Xa can be measured, for example, by the method of T. Hara et al. in Thromb. Haemostas. 1994, 71, 314-319.

TF/FVIIa = TF/FVIIa (Homo sapiens, UniProt P08709); experiment: TF/FVIIa inhibition (TF/FVIIa-IC50); type: biochemical
From the text: Coagulation factor VIIa initiates the extrinsic part of the coagulation cascade after binding to tissue factor and contributes to the activation of factor X to give factor Xa. Inhibition of factor VIIa thus prevents the formation of factor Xa and thus subsequent thrombin formation. • The inhibition of factor VIIa by the compounds according to the invention and the measurement of the anticoagulant and antithrombotic activity can be determined by conventional in-vitro or in-vivo methods. A conventional method for the measurement of the inhibition of factor VIIa is described, for example, by H. F. Ronning et al. in Thrombosis Research 1996, 84, 73-81.

Sequence of factor Xa (P00742 235-488 limits assumed): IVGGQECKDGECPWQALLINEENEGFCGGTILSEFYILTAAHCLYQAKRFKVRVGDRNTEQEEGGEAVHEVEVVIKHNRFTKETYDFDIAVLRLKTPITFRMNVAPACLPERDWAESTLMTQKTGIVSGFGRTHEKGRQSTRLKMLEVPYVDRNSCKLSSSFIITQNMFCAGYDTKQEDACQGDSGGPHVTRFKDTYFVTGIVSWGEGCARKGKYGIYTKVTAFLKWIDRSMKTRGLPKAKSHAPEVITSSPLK
Sequence of factor Xa (P00742 41-179 partner limits assumed): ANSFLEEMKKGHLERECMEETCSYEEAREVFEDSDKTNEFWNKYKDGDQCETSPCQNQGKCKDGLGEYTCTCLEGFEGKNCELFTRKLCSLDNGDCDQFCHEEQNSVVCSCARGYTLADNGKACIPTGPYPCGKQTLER
Sequence of TF/FVIIa (P08709 213-466 limits assumed): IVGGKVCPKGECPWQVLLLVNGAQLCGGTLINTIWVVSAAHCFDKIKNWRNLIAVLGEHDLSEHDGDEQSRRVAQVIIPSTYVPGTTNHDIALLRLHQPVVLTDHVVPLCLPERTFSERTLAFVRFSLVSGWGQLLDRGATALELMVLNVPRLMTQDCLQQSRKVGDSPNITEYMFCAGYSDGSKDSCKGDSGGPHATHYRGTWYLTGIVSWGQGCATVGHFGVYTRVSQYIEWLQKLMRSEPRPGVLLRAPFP
Sequence of TF/FVIIa (P08709 61-212 partner limits assumed): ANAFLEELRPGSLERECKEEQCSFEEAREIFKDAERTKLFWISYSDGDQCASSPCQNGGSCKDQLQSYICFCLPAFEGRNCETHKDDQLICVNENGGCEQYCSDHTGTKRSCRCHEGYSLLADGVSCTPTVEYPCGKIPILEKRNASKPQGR
Sequence of TF/FVIIa (P13726 33-295 partner): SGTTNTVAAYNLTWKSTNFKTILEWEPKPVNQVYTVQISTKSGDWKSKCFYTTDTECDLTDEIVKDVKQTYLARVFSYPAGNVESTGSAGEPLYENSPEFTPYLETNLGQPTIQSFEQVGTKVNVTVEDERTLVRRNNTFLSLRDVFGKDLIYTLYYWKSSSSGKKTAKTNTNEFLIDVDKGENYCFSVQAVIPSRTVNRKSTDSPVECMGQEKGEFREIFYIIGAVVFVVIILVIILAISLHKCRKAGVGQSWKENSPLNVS

| IC50 (factor Xa) [nM] | IC50 (TF/FVIIa) [nM] | Structure (SMILES) |
| --- | --- | --- |
| 28 | 28 | CS(=O)(=O)CCC(NC(=O)Nc1ccc(Cl)cc1)C(=O)Nc1ccc(-n2ccccc2=O)cc1 (stereo not shown) [Compound 1A, 2-[3-(4-chlorophenyl)ureido]-N-[4-(2-oxo-2H-pyridin-1-yl)phenyl]-4-methanesulfonylbutyramide] |
| 42 | 43 | CS(=O)(=O)CCC(NC(=O)Nc1ccc(Cl)cc1)C(=O)Nc1ccc(-n2ccncc2=O)cc1 (stereo not shown) [Compound 1B, 2-[3-(4-chlorophenyl)ureido]-N-[4-(2-oxo-2H-pyrazin-1-yl)phenyl]-4-methanesulfonylbutyramide] |
| 6.4 | 12 | CS(=O)(=O)C[C@H](NC(=O)Nc1ccc(Cl)cc1)C(=O)Nc1ccc(-n2ccccc2=O)cc1 [Compound 2A, (R)-2-[3-(4-chlorophenyl)ureido]-N-[4-(2-oxo-2H-pyridin-1-yl)phenyl]-3-methanesulfonylpropionamide] |

| Structure (SMILES) | IC50 (factor Xa) [nM] | IC50 (TF/FVIIa) [nM] |
| --- | --- | --- |
| COP(=O)(C[C@@H](NC(=O)Nc1ccc(Cl)cc1)C(=O)Nc1ccc(N2CCOCC2=O)cc1)OC [Compound 1D, (S)-2-[3-(4-chlorophenyl)ureido]-N-[4-(3-oxomorpholin-4-yl)phenyl]-3-(dimethoxyphosphoryl)propionamide] | 85 | – |
